Measurements as given in ChEMBL document CHEMBL3885861, “Open TG-GATES”.

Species on record: Rattus norvegicus
Assay: Open TG-GATES - Regimen: Single
Type: toxicity, organism-based, Sprague-Dawley
Parameters: regimen Single, gender Male, age 6 weeks
Settings: in vivo, po, 0 mg/kg, route gavage, dose level Control; for APTT / Bas / Eos / Fbg / Hb / Ht / Lym / MCH / MCHC / MCV / Mono / Neu / PT / Plat / RBC / Ret / WBC: tissue Blood; for LIVER: tissue Liver; for A/G / ALP / ALT / AST / BUN / CRE / Ca / Cl / DBIL / GLC / IP / K / LDH / Na / PL / RALB / TBIL / TC / TG / TP / gamma-GTP: tissue Plasma

With `C=C(C)[C@H]1Cc2c(ccc3c2O[C@@H]2COc4cc(OC)c(OC)cc4[C@@H]2C3=O)O1` [ROTENONE] the TERMINAL_BW (3 h) was 198.4 g, the APTT (3 h) was 15 s and the Bas (3 h) was 0%. For the same molecule, the Eos (3 h) was 1%, the Fbg (3 h) was 207.8 mg/dL and the Hb (3 h) was 12.6 g/dL. For the same molecule, the Ht (3 h) was 38.3%, the Lym (3 h) was 76.8% and the MCH (3 h) was 21 pg. The MCHC (3 h) was 33%, the MCV (3 h) was 63.7 fL and the Mono (3 h) was 5%. For the same molecule, the Neu (3 h) was 17.6%, the PT (3 h) was 12.1 s and the Plat (3 h) was 131.6 x10_4/uL. It also gave an RBC (3 h) of 601.6 x10_4/ul, a Ret (3 h) of 9.8% and a WBC (3 h) of 98.8 x10_2/uL. For the same molecule, the LIVER (3 h) was 9.4 g, the A/G (3 h) was 2.3 and the ALP (3 h) was 1432.2 IU/L. The ALT (3 h) was 35.8 IU/L, the AST (3 h) was 70.6 IU/L and the BUN (3 h) was 12.8 mg/dL. The CRE (3 h) was 0.3 mg/dL, the Ca (3 h) was 11 mg/dL and the Cl (3 h) was 104.6 meq/L. For the same molecule, the DBIL (3 h) was 0.01 mg/dL, the GLC (3 h) was 188.2 mg/dL and the IP (3 h) was 8.3 mg/dL. The K (3 h) was 4.4 meq/L, the LDH (3 h) was 80.6 IU/L and the Na (3 h) was 140.4 meq/L. For the same molecule, the PL (3 h) was 139.6 mg/dL, the RALB (3 h) was 3.7 g/dL and the TBIL (3 h) was 0.04 mg/dL. The TC (3 h) was 82.8 mg/dL, the TG (3 h) was 61.2 mg/dL and the TP (3 h) was 5.3 g/dL. The gamma-GTP (3 h) was 1 IU/L, the TERMINAL_BW (6 h) was 197 g and the APTT (6 h) was 15.9 s. It also gave a Bas (6 h) of 0%, an Eos (6 h) of 1% and a Fbg (6 h) of 218 mg/dL. For the same molecule, the Hb (6 h) was 13.2 g/dL, the Ht (6 h) was 40.3% and the Lym (6 h) was 72.2%. The MCH (6 h) was 21.2 pg, the MCHC (6 h) was 32.8% and the MCV (6 h) was 64.5 fL. It also gave a Mono (6 h) of 9%, a Neu (6 h) of 17.6% and a PT (6 h) of 12.1 s. For the same molecule, the Plat (6 h) was 122.2 x10_4/uL, the RBC (6 h) was 625.8 x10_4/ul and the Ret (6 h) was 8.1%. For the same molecule, the WBC (6 h) was 92.8 x10_2/uL, the LIVER (6 h) was 8.7 g and the A/G (6 h) was 2.3. For the same molecule, the ALP (6 h) was 1181 IU/L, the ALT (6 h) was 35.4 IU/L and the AST (6 h) was 67 IU/L. It also gave a BUN (6 h) of 9.6 mg/dL, a CRE (6 h) of 0.4 mg/dL and a Ca (6 h) of 10.9 mg/dL. The Cl (6 h) was 103.4 meq/L, the DBIL (6 h) was 0.01 mg/dL and the GLC (6 h) was 181.8 mg/dL. The IP (6 h) was 9 mg/dL, the K (6 h) was 4.4 meq/L and the LDH (6 h) was 87 IU/L. For the same molecule, the Na (6 h) was 139.2 meq/L, the PL (6 h) was 139.8 mg/dL and the RALB (6 h) was 3.8 g/dL. It also gave a TBIL (6 h) of 0.048 mg/dL, a TC (6 h) of 81.8 mg/dL and a TG (6 h) of 82.8 mg/dL. The TP (6 h) was 5.4 g/dL, the gamma-GTP (6 h) was 0.4 IU/L and the TERMINAL_BW (9 h) was 190.2 g. It also gave an APTT (9 h) of 16 s, a Bas (9 h) of 0% and an Eos (9 h) of 1%. The Fbg (9 h) was 209 mg/dL, the Hb (9 h) was 13 g/dL and the Ht (9 h) was 39.4%. The Lym (9 h) was 74.4%, the MCH (9 h) was 21.4 pg and the MCHC (9 h) was 32.9%. For the same molecule, the MCV (9 h) was 64.8 fL, the Mono (9 h) was 8.4% and the Neu (9 h) was 16.6%. For the same molecule, the PT (9 h) was 12.2 s, the Plat (9 h) was 123.2 x10_4/uL and the RBC (9 h) was 609 x10_4/ul. It also gave a Ret (9 h) of 9.2%, a WBC (9 h) of 95 x10_2/uL and an LIVER (9 h) of 8 g. The A/G (9 h) was 2.5, the ALP (9 h) was 1388.2 IU/L and the ALT (9 h) was 33.6 IU/L. For the same molecule, the AST (9 h) was 64.4 IU/L, the BUN (9 h) was 9.8 mg/dL and the CRE (9 h) was 0.3 mg/dL. The Ca (9 h) was 11 mg/dL, the Cl (9 h) was 104.2 meq/L and the DBIL (9 h) was 0.01 mg/dL. For the same molecule, the GLC (9 h) was 182.2 mg/dL, the IP (9 h) was 10.2 mg/dL and the K (9 h) was 4.1 meq/L. It also gave an LDH (9 h) of 74.6 IU/L, a Na (9 h) of 140 meq/L and a PL (9 h) of 134.2 mg/dL. For the same molecule, the RALB (9 h) was 3.8 g/dL, the TBIL (9 h) was 0.05 mg/dL and the TC (9 h) was 81.4 mg/dL. It also gave a TG (9 h) of 42.2 mg/dL, a TP (9 h) of 5.3 g/dL and a gamma-GTP (9 h) of 1 IU/L. For the same molecule, the TERMINAL_BW (24 h) was 212.6 g, the APTT (24 h) was 15.6 s and the Bas (24 h) was 0%. For the same molecule, the Eos (24 h) was 1%, the Fbg (24 h) was 220.6 mg/dL and the Hb (24 h) was 12.6 g/dL. For the same molecule, the Ht (24 h) was 38.4%, the Lym (24 h) was 69% and the MCH (24 h) was 21.6 pg. The MCHC (24 h) was 32.8%, the MCV (24 h) was 65.9 fL and the Mono (24 h) was 9.8%. The Neu (24 h) was 20%, the PT (24 h) was 12 s and the Plat (24 h) was 131.2 x10_4/uL. For the same molecule, the RBC (24 h) was 582.6 x10_4/ul, the Ret (24 h) was 8.3% and the WBC (24 h) was 108.8 x10_2/uL. The LIVER (24 h) was 10.1 g, the A/G (24 h) was 2.5 and the ALP (24 h) was 1476.8 IU/L. For the same molecule, the ALT (24 h) was 48 IU/L, the AST (24 h) was 75.8 IU/L and the BUN (24 h) was 18 mg/dL. The CRE (24 h) was 0.4 mg/dL, the Ca (24 h) was 11.5 mg/dL and the Cl (24 h) was 103.8 meq/L. For the same molecule, the DBIL (24 h) was 0.014 mg/dL, the GLC (24 h) was 181.6 mg/dL and the IP (24 h) was 7.2 mg/dL. The K (24 h) was 4.8 meq/L, the LDH (24 h) was 93.8 IU/L and the Na (24 h) was 139 meq/L. For the same molecule, the PL (24 h) was 148.4 mg/dL, the RALB (24 h) was 3.9 g/dL and the TBIL (24 h) was 0.042 mg/dL. For the same molecule, the TC (24 h) was 81.2 mg/dL, the TG (24 h) was 123.6 mg/dL and the TP (24 h) was 5.5 g/dL. For the same molecule, the gamma-GTP (24 h) was 0.6 IU/L.
